Results: patent US10973748B2, “Compositions and methods for lightening skin and reducing hyperpigmentation” (Versitech Limited, priority 2016, dated 2021)

Tests used:
[1] = tested on: MelanoDerm (Mel-300-A) epidermal equivalents containing melanocytes; assay: Tissue viability of artificial skin model (CCK-8); format: cell-based, human; conditions: whole treatment period (14 days), rapamycin 2.5 μM, 6-CEPN 10 μM, 8-CEPQ 5 μM
Method: (§1) Epidermal equivalents containing melanocytes (Mel-300-A) were maintained according to the manufacturer's instructions. Mel-300-A tissue was cultured in EPI-100-NMM-113 medium for 14 days. Agents were dissolved in tissue culture medium and changed every other day. The test agents were either (1) rapamycin (2.5 μM), as the positive control in depigmentation, (2) 6-CEPN (10 μM), or (3) 8-CEPQ (5 μM). The concentration of rapamycin used was lower than 6-CEPN and 8-CEPQ, as rapamycin is toxic to cells at higher concentration. Pigmentation of these skin equivalents was compared against treatment of cells with a culture medium only (denoted as “vehicle”). Tissue viability was assessed on day 14 by CCK-8 assay as described in Example 1. On day 14, single tissues were harvested and photographed. The L* parameter was used to evaluate skin lightening or darkening. The lighter the skin, the greater the L* value. ΔL* value was measured by a Chroma Meter CR400 (Konica Minolta) for an evaluation of lightening as a function of time. Three tissues for each treatment were frozen for the Solvable Melanin assay (Bessou-Touya et al., “Chimeric human epidermal reconstructs to study the role of melanocytes and keratinocytes in pigmentation and photoprotection.” Journal of investigative dermatology 111(6):1103-1108 (1998)). Additional tissues were fixed by 10% formanin. For melanin staining in paraffin-embedded tissues, Fontana-Masson silver staining was used as previously detailed (Barbosa et al., “A simple and economical modification of the Masson-Fontana method for staining melanin granules and enterochromaffin cells.” Stain technology 59(4):193-196 (1984)).

[2] = tested on: MelanoDerm (Mel-300-A) epidermal equivalents containing melanocytes; assay: Fontana-Masson silver staining of artificial skin model; format: cell-based, human; conditions: day 14, rapamycin 2.5 μM, 6-CEPN 10 μM
Method: as §1

[3] = biological target: T1, tyrosinase (Mus musculus, UniProt P11344); assay: Cellular tyrosinase activity assay (L-DOPA oxidation in cell lysates); format: cell-based, murine; conditions: melan-a cells, α-MSH, 72 hrs; 6-CEPN 10 or 20 μM, 8-CEPQ 2.5 or 5 μM
T1 construct: endogenous in cells; host or cells: melan-a cells
T1 sequence (P11344 19-533): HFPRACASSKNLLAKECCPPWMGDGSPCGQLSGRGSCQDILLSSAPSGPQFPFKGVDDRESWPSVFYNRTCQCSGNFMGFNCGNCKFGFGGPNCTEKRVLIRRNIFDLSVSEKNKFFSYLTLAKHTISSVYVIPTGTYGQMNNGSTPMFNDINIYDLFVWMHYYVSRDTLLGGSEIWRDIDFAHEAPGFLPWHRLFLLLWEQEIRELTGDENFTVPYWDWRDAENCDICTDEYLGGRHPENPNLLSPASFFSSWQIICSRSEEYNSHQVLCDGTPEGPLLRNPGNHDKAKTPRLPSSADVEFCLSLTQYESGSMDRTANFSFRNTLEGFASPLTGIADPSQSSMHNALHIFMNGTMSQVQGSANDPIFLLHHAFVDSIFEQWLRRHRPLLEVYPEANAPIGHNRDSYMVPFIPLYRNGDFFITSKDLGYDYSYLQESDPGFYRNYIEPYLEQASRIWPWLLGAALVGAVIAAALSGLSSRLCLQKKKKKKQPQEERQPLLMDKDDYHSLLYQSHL
Method: Cellular tyrosinase activity was determined by measuring the oxidation of L-3,4-dihydroxyphenylalanine (L-DOPA) to dopachrome in cell lysates. Melan-a cells (1.5×10^5 cells/well) were plated in 1 mL of culture medium in a 24-well multidishes for at least 24 hrs prior to use. The cells were treated with α-MSH (1 μM) alone or with α-MSH plus different concentrations of testing agents for 72 hrs. The cells were washed with cold PBS and lysed in 900 μL of PBS with 1% Triton X-100. After being freeze-thawed at −80° C. for 30 min followed by 25° C. for 30 min, 100 μL of 10 mM L-DOPA was then added to each well. Following incubation at 37° C. for 1 hr, the absorbance of the agents was measured at 490 nm using Victor X4 Multilabel Plate Reader (PerkinElmer, Mass., USA).

[4] = tested on: melan-a cells; assay: Melanosome autophagy by fluorescence microscopy; format: cell-based, murine; conditions: α-MSH, rapamycin 0.5 μM 24 hrs, 6-CEPN 10 μM, 8-CEPQ 5 μM 72 hrs
Method: Melan-a cells (1.5×10^5 cells/well) were seeded on coverslips in 6-well palte. The cells were treated with (1) α-MSH (1 μM) alone for 24 hrs, (2) α-MSH (1 μM) plus rapamycin (0.5 μM) for 24 hrs, (3) α-MSH (1 μM) plus 6-CEPN (10 μM), or (3) α-MSH (1 μM) plus 8-CEPQ (5 μM) for 72 hrs. Culture medium was removed carefully after the cells reached 50%˜70% level of confluence. Cells were stained by microscopy dual detection reagents (autophagy detection kit, Abcam) for 30 mins at 37° C. The stained cells were analyzed by wide-field fluorescence microscopy (60× magnification). Standard FITC filter and DAPI filter were set to image the autophagic signal and the nuclear signal, respectively.

[5] = tested on: MelanoDerm (Mel-300-A) epidermal equivalents containing melanocytes; assay: Depigmentation in artificial skin model: brightness and L* value; format: cell-based, human; conditions: 6-CEPN 10 μM, 8-CEPQ 5 μM
Method: as §1

[6] = tested on: MelanoDerm (Mel-300-A) epidermal equivalents containing melanocytes; assay: Solvable Melanin assay in artificial skin model; format: cell-based, human; conditions: 14 days, rapamycin 2.5 μM, 6-CEPN 10 μM, 8-CEPQ 5 μM
Method: Epidermal equivalents containing melanocytes (Mel-300-A) were maintained according to the manufacturer's instructions. Mel-300-A tissue was cultured in EPI-100-NMM-113 medium for 14 days. Agents were dissolved in tissue culture medium and changed every other day. The test agents were either (1) rapamycin (2.5 μM), as the positive control in depigmentation, (2) 6-CEPN (10 μM), or (3) 8-CEPQ (5 μM). The concentration of rapamycin used was lower than 6-CEPN and 8-CEPQ, as rapamycin is toxic to cells at higher concentration. Pigmentation of these skin equivalents was compared against treatment of cells with a culture medium only (denoted as “vehicle”). Tissue viability was assessed on day 14 by CCK-8 assay as described in Example 1. On day 14, single tissues were harvested and photographed. The L* parameter was used to evaluate skin lightening or darkening. The lighter the skin, the greater the L* value. ΔL* value was measured by a Chroma Meter CR400 (Konica Minolta) for an evaluation of lightening as a function of time. Three tissues for each treatment were frozen for the Solvable Melanin assay (Bessou-Touya et al., “Chimeric human epidermal reconstructs to study the role of melanocytes and keratinocytes in pigmentation and photoprotection.” Journal of investigative dermatology 111(6):1103-1108 (1998)). Additional tissues were fixed by 10% formanin. […]

SMILES	cytotoxicity (tissue viability) [1]	thickness of basal layer of tissue [2]	tyrosinase activity [3]	melanosome autophagy [4]	brightness of the tissues (visual examination) ([5]; 14 days, rapamycin 2.5 μM)	L* value vs negative control ([5]; day 14, rapamycin 2.5 μM)	amount of melanin in human skin equivalents [6]
CO[C@H]1C[C@@H]2CC[C@@H](C)[C@@](O)(O2)C(=O)C(=O)N2CCCC[C@H]2C(=O)O[C@H]([C@H](C)C[C@@H]2CC[C@@H](O)[C@H](OC)C2)CC(=O)[C@H](C)/C=C(\C)[C@@H](O)[C@@H](OC)C(=O)[C@H](C)C[C@H](C)/C=C/C=C/C=C/1C [rapamycin, reference compound]	without significant cytotoxicity	thinner than 6-CEPN-treated or non-treated control groups	–	–	–	–	–
O=c1c(O)c(-c2ccc(O)c(O)c2)oc2c(/C=C/c3ccccc3)c(O)cc(O)c12 [8-CEPQ, 8-C-(E-phenylethenyl)-quercetin]	without significant cytotoxicity	–	significant inhibition on tyrosinase activity in a dose-dependent manner	induced melanosome autophagy	increased the brightness of the tissues	increased the L* value	significantly inhibited the amount of melanin
